Literature values in patent US20200281890A1, “COMPOSITIONS COMPRISING CANNABIDIOL, TETRAHYDROCANNABINOL, TERPENES, AND […] USE THEREOF IN THE TREATMENT OF INSOMNIA” (CANOPY HEALTH INNOVATIONS, priority 2017, published 2020).

Legend:
[1] = test system: mouse; conditions: up to 80 mg/kg
[2] = test system: mice, rats, gerbils and non-human primates
[3] = test system: a2-adrenergic receptor
[4] = molecular target: T1, 5-HT1A receptor (Homo sapiens, UniProt P08908)
T1 sequence (P08908 1-422): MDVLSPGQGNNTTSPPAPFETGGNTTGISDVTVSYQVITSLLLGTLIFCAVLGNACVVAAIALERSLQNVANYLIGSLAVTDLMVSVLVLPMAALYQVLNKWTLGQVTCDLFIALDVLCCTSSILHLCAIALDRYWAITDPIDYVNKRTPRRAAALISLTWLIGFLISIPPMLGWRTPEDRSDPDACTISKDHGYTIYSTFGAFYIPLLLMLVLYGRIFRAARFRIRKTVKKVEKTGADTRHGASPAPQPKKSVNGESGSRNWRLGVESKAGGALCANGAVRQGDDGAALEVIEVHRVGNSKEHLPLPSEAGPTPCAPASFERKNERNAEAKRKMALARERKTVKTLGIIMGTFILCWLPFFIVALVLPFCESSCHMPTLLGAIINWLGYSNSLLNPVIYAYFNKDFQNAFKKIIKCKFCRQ

[5] = molecular target: CB1 receptor (Homo sapiens, UniProt P21554)
[6] = molecular target: CB2 receptor (Homo sapiens, UniProt P34972)
CB2 receptor, sequence (P34972 whole entry): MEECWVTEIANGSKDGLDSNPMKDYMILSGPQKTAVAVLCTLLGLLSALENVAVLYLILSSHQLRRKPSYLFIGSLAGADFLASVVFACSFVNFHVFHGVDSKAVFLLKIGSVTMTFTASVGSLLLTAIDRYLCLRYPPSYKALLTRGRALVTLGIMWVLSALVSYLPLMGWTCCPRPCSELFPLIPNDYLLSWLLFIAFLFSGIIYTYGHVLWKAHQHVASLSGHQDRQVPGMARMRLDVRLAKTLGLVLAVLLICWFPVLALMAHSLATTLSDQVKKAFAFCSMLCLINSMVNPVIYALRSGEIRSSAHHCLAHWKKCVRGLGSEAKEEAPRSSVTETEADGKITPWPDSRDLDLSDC

CB1 receptor, sequence (P21554 whole entry): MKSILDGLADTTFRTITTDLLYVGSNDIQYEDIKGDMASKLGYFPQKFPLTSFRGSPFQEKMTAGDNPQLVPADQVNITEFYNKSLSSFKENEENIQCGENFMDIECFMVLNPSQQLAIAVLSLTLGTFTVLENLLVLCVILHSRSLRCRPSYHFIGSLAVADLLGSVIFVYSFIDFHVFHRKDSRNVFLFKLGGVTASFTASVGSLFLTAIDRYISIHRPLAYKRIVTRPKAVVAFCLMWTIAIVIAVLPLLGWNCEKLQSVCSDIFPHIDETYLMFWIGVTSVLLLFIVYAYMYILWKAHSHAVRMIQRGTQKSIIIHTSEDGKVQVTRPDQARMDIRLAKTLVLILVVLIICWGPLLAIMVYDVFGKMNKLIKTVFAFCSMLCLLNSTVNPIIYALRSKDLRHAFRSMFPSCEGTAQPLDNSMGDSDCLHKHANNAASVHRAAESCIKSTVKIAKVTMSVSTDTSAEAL

CCCCCc1cc(O)c(C/C=C(\C)CCC=C(C)C)c(O)c1 [CBG, cannabigerol]
effect in mouse tetrad test (locomotor suppression, catalepsy, hypothermia and analgesia) [1]: without effect
THC-like activity [2]: does not trigger THC-like activity
a2-adrenergic receptor affinity and function [3]: high affinity a2-adrenergic receptor agonist
5-HT1A receptor affinity and function [4]: moderate affinity 5-HT1A receptor antagonist
CB1 receptor affinity and function [5]: low affinity CB1 receptor antagonist
CB2 receptor binding and function [6]: antagonist

CCCCCc1cc(O)c2c(c1)OC(C)(C)c1ccc(C)cc1-2 [CBN, cannabinol]
function at the CB1 receptors [5]: partial agonist
affinity to CB2 receptors relative to CB1 ([6]; lower affinities in comparison to THC): higher affinity to CB2 receptors
